Assay results reported in article PMC7492092 (European journal of medicinal chemistry, 2020).

How the values were obtained:
[1] = Microsomal stability assay, mouse liver microsomes; format: in vitro ADME; conditions: pre-incubation with Cobi vs without
[2] = Microsomal stability assay, human liver microsomes; format: in vitro ADME; conditions: pre-incubation with Cobi vs without
[3] = Cytotoxicity assay; format: cell-based; conditions: human, TZM-GFP cells

Compound | increase of half-life with Cobicistat (MLM) [1] [fold] | increase of half-life with Cobicistat (HLM) [2] [fold] | CC50 at 72 h [3] [µM]
CN(C(=O)[C@H](Cc1ccccc1)NC(=O)Cc1c[nH]c2ccccc12)c1ccc(Br)cc1 [Compd 32, (S)-2-(2-(1H-indol-3-yl)acetamido)-N-(4-bromophenyl)-N-methyl-3-phenylpropanamide] | 74 | 62 | 
CN(C(=O)[C@H](Cc1ccccc1)NC(=O)Cc1c[nH]c2ccccc12)c1ccc(Cl)nc1 [Compd 37, (S)-2-(2-(1H-indol-3-yl)acetamido)-N-(6-chloropyridin-3-yl)-N-methyl-3-phenylpropanamide] |  |  | 57 ± 0.3
